From ChEMBL document CHEMBL3112423, “Selective EP4 Antagonist May Be Useful in Treating Arthritis and Arthritic Pain” (ACS Med Chem Lett, 2014) come the findings set out here.

For orientation: pKi means the negative decadic logarithm of the Ki, by convention in mol/L.

Assay [1] concerns the target T1, Prostaglandin E2 receptor EP3 subtype (Homo sapiens, UniProt P43115).
T1 sequence (P43115 whole entry): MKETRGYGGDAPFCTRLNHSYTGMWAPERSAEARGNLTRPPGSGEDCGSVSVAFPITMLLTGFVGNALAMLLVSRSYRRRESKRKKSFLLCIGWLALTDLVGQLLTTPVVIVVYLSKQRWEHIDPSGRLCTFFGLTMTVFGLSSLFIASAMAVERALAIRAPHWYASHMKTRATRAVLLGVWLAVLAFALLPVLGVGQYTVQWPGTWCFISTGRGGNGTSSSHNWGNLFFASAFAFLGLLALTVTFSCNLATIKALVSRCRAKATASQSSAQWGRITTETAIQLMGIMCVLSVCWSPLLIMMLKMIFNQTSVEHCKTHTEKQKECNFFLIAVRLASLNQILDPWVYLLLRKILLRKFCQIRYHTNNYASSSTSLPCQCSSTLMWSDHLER
In words: Displacement of [3H]-PGE2 from human EP3 receptor expressed in HEK293 cell membranes after 90 mins by topcount scintillation counting analysis. (Displacement assays read how much labelled ligand stays bound in the presence of the test substance.)

For assay [2], the target named is T2, Prostaglandin E2 receptor EP1 subtype (Homo sapiens, UniProt P34995).
T2 sequence (P34995 whole entry): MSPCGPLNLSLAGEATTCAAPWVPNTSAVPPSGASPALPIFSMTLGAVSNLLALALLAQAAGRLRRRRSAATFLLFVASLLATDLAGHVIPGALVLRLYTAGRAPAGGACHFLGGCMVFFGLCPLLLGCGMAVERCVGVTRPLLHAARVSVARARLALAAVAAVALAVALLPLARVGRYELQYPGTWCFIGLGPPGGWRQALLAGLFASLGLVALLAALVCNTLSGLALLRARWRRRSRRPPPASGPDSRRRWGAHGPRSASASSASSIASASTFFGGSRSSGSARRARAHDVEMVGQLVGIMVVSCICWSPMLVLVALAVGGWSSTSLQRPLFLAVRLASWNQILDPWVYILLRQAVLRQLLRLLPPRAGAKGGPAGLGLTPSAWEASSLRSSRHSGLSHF
As to the kind of experiment: Displacement of [3H]-PGE2 from human EP1 receptor expressed in recombinant HEK293 cell membranes after 90 mins by topcount scintillation counting analysis.

The structures appear in SMILES notation. pKi: −log10 of the molar value. Bounds are passed on as bounds.

With `C[C@H](NC(=O)[C@H]1CCCCN1CCOc1ccccc1)c1ccc(C(=O)O)cc1`, the pKi was < 4.85 in assay [1] and < 4.76 in assay [2].
